From patent US20250120967A1, “TYROSINE KINASES INHIBITORS AND USES THEREOF” (GREAT NOVEL THERAPEUTICS BIOTECH & MEDICALS CORPORATION, priority 2023, published 2025)
Like-named read-outs stand apart in the source and are kept apart here.

Legend:
Test in all cases: Tyrosine kinase inhibition assay
Format in all cases: biochemical
[1] = target: FYN A (Homo sapiens, UniProt P06241); conditions: single concentration 1.0 μM, read-out: percent inhibition
Method: (§1) Tyrosine kinase inhibition assays were performed at ThermoFisher Life Technologies (Madison, WI, USA) using standard protocols (SelectScreen Biochemical Profiling Service, Thermo Fisher Scientific). ATP concentrations used were at the apparent Km. Test compounds were screened in 1% dimethylsulffoxide (DMSO) (final concentration) in the well. For 10-point titrations, 3-fold serial dilutions were conducted from the starting concentration of […]. All Peptide/Kinase Mixtures were diluted to a 2× working concentration in the appropriate Kinase Buffer. All ATP Solutions were diluted to a 4× working concentration in Kinase Buffer (50 mM HEPES pH 7.5, 0.01% BRIJ-35, 10 mM MgCl2, 1 mM EGTA). The apparent ATP Km was previously determined using a Z′-LYTE assay. The Development Reagent was diluted in Development Buffer.
(§2) The inhibition activities of compounds were determined in biochemical assays using single concentration (1.0 μM) measurements. The results were provided as percent inhibition values. A compound displaying a percent inhibition value of greater 80% was defined as a hit. 99 different tyrosine kinases were used.

[2] = target: T1, TEC (Homo sapiens, UniProt P42680); conditions: single concentration 1.0 μM, read-out: percent inhibition
T1 sequence (P42680 1-631): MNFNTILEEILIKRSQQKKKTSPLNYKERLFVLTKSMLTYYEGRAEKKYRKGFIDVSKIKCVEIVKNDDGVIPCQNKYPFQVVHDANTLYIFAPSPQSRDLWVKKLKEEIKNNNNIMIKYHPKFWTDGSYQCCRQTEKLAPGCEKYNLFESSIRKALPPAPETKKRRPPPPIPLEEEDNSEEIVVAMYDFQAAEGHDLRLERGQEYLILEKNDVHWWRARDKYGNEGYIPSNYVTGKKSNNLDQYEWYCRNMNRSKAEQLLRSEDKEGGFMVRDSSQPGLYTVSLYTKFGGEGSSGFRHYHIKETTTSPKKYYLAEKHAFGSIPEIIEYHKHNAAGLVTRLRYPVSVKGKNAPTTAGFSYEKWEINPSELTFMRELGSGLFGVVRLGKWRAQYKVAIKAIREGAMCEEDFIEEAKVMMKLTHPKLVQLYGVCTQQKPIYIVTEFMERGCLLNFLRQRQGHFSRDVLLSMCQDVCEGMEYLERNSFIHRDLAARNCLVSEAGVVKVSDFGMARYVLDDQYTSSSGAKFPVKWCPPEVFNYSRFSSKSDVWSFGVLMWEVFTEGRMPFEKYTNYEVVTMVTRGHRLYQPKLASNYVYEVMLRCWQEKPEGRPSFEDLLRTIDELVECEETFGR
Method: as §1, §2

[3] = target: ABL2 (Arg) (Homo sapiens, UniProt P42684); conditions: single concentration 1.0 μM, read-out: percent inhibition
Method: as §1, §2

[4] = target: T2, AURKC (Aurora C) (Homo sapiens, UniProt Q9UQB9); conditions: single concentration 1.0 μM, read-out: percent inhibition
T2 sequence (Q9UQB9 1-309): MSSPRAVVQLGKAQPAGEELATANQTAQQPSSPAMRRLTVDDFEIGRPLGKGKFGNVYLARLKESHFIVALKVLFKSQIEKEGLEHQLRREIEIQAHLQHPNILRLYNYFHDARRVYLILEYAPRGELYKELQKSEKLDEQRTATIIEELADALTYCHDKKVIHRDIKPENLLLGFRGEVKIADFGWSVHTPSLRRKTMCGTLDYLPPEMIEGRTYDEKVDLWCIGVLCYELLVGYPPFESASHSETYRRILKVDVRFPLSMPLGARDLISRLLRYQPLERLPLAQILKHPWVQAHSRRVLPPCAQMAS
Method: as §1, §2

[5] = target: T3, AURKA (Aurora A) (Homo sapiens, UniProt O14965); conditions: single concentration 1.0 μM, read-out: percent inhibition
T3 sequence (O14965 1-403): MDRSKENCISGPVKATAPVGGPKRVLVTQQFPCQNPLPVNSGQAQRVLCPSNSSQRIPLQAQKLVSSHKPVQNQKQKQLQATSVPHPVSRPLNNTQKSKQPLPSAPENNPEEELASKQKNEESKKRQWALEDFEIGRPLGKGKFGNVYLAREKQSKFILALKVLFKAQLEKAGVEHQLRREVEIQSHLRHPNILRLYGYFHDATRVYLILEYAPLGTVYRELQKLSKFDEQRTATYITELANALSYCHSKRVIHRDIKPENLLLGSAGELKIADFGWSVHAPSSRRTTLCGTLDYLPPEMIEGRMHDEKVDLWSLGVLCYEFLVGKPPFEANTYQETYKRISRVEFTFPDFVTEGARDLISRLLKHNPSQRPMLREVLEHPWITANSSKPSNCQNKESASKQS
Method: as §1, §2

[6] = target: PIK3CA/PIK3R1 (p110 alpha/p85 alpha) (Homo sapiens, UniProt P42336); conditions: read-out: percent inhibition
Method: as §1, §2

[7] = target: JAK1 (Homo sapiens, UniProt P23458); conditions: single concentration 1.0 μM, read-out: percent inhibition
Method: as §1, §2

[8] = target: FES (FPS) (Homo sapiens, UniProt P07332); conditions: single concentration 1.0 μM, read-out: percent inhibition
Method: as §1, §2

[9] = target: NTRK3 (TRKC) (Homo sapiens, UniProt Q16288); conditions: single concentration 1.0 μM, read-out: percent inhibition
Method: as §1, §2

[10] = target: PIK3C3 (hVPS34) (Homo sapiens, UniProt Q8NEB9); conditions: single concentration 1.0 μM, read-out: percent inhibition
Method: as §1, §2

[11] = PIK3CA/PIK3R1 (p110 alpha/p85 alpha), single concentration 1.0 μM

Chain of JAK1 (P23458 whole entry): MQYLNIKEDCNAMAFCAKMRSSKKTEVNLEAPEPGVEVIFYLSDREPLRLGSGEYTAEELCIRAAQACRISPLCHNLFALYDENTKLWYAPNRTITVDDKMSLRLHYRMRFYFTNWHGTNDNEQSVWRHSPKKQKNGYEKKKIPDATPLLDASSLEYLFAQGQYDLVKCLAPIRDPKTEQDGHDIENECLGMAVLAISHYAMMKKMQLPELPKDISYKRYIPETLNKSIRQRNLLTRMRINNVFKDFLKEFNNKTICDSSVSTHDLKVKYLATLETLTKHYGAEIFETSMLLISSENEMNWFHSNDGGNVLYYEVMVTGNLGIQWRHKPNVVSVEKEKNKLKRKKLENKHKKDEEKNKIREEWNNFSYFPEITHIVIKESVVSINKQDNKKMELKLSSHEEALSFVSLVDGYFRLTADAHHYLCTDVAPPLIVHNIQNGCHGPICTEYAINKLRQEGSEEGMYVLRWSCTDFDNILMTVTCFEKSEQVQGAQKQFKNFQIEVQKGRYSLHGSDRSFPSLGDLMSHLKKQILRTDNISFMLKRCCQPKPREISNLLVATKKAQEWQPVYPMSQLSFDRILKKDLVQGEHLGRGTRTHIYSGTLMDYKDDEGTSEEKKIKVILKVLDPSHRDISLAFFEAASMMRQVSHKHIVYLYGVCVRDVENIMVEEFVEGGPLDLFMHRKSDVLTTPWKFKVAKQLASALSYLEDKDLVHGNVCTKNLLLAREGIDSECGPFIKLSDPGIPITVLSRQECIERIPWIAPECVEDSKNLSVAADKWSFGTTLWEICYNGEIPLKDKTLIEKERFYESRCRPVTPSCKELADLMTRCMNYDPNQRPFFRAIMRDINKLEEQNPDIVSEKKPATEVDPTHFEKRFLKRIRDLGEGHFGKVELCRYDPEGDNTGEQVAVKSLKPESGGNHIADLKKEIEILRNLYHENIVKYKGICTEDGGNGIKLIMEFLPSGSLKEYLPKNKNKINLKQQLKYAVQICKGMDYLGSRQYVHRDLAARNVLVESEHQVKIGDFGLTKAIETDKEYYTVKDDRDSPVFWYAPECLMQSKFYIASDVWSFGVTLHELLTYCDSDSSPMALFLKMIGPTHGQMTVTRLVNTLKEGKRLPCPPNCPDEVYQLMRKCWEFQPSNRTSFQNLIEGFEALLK
Chain of FES (FPS) (P07332 whole entry): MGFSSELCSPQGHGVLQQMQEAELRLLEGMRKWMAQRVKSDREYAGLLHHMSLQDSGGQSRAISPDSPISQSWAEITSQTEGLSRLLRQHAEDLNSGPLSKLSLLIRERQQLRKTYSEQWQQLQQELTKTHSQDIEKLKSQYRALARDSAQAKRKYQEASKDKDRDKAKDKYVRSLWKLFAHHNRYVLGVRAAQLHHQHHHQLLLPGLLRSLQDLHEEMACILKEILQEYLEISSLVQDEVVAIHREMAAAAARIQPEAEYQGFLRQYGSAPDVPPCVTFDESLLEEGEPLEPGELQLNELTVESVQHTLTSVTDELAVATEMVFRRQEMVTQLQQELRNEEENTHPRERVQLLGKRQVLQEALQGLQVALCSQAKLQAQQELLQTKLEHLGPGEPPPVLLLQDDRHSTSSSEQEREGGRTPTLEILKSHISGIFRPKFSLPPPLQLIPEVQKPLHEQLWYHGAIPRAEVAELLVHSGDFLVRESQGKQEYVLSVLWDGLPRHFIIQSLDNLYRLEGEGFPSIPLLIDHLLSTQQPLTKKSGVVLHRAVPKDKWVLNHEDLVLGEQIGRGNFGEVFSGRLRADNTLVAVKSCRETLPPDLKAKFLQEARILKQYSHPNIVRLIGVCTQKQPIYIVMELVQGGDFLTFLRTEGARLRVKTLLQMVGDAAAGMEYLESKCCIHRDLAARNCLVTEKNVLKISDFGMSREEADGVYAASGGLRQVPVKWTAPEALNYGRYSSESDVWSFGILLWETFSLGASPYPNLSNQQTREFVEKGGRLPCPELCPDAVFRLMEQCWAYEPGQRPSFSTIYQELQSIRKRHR
Chain of PIK3C3 (hVPS34) (Q8NEB9 whole entry): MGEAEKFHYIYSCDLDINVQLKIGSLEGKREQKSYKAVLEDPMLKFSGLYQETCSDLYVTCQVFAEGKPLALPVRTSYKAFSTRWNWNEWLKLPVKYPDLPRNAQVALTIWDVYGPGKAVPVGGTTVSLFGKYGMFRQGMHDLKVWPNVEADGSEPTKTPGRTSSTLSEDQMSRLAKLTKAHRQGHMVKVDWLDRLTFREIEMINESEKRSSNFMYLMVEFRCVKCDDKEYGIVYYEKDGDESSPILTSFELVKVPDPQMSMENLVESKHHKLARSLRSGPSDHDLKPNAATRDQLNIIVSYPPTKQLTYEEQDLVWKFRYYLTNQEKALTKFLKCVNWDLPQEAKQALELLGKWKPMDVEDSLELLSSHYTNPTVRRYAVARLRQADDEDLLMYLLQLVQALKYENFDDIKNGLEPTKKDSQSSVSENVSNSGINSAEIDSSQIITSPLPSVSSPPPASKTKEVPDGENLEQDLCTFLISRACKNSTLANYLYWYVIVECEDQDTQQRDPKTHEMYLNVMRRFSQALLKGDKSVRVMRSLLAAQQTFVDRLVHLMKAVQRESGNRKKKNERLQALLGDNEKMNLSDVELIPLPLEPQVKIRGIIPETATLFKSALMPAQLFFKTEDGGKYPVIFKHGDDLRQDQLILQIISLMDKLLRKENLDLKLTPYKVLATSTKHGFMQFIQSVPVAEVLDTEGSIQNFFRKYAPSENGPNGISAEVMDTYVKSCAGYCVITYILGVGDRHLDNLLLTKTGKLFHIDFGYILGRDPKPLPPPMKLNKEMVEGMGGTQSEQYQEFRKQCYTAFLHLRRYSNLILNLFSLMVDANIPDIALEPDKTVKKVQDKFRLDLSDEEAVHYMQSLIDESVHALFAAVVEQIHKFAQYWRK
Chain of ABL2 (Arg) (P42684 whole entry): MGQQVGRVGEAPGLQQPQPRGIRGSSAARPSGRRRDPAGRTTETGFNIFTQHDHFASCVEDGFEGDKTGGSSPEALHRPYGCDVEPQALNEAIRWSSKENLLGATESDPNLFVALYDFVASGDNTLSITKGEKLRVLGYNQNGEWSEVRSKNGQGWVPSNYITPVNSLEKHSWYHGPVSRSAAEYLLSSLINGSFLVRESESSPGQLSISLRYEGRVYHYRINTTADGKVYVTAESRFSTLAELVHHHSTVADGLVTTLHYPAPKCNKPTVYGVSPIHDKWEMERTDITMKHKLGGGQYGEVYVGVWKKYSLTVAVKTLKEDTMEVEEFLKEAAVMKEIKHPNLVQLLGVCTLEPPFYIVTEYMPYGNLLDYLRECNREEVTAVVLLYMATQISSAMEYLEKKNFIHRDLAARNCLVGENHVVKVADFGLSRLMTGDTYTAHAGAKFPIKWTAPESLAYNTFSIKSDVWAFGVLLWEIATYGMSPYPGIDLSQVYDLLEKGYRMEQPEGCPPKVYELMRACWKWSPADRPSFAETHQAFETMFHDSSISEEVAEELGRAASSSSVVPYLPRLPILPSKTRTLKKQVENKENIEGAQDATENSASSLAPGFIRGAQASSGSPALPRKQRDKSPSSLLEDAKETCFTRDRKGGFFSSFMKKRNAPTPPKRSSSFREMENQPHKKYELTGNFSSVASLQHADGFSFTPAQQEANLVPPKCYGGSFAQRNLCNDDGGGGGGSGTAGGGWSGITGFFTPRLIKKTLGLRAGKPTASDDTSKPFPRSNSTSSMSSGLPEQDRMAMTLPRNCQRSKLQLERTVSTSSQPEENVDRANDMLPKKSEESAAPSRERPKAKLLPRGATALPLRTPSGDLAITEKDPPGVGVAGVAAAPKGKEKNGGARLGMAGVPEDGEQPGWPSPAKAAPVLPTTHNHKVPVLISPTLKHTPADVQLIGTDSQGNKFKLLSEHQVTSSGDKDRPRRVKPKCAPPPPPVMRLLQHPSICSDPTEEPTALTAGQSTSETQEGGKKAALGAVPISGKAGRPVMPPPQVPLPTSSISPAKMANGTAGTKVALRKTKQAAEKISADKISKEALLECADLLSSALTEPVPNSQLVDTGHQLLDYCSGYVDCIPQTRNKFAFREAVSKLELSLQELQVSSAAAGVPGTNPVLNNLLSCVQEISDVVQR
Chain of FYN A (P06241 whole entry): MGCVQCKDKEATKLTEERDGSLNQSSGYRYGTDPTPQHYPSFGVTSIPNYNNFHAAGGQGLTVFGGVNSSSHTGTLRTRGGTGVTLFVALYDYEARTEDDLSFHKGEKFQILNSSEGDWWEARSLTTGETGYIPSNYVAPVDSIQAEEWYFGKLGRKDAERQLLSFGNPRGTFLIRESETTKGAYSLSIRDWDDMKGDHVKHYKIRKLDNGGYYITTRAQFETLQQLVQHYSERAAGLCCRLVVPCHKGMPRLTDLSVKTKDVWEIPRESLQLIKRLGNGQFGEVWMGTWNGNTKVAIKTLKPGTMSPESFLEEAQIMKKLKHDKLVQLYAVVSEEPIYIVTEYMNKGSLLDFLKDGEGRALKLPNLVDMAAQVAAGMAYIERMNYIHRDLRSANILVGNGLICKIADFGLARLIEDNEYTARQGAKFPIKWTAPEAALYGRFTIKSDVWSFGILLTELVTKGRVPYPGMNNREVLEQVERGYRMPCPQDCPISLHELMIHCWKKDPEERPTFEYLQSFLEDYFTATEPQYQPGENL

Row | Compound | inhibition at 1 µM [1] [%] | inhibition at 1 µM [2] [%] | inhibition at 1 µM [3] [%] | inhibition at 1 µM [4] [%] | inhibition at 1 µM [5] [%] | inhibition at 1 µM [6, 11] [%] | inhibition at 1 µM [7] [%] | inhibition at 1 µM [8] [%] | inhibition at 1 µM [9] [%] | inhibition at 1 µM [10] [%] | inhibition at 1 µM [6] [%]
1 | COc1cc2nccc(Oc3ccc(NC(=O)C4(C(=O)Nc5ccc(F)cc5)CC4)cc3F)c2cc1Oc1ccc(N)cc1F [Cbo-23] | 70 | 37 | 54 | 41 | 55 | 4 | 4 | 58 | 98 | -4 | 
2 | COc1cc2nccc(Oc3ccc(NC(=O)C4(NC(=O)c5ccc(F)cc5)CC4)cc3F)c2cc1Oc1ccc(N)cc1F [Cbo-10] | 47 | 80 | 17 | 63 | 92 | 10 | 2 | 80 | 89 | -5 | 
3 | COc1cc2nccc(Oc3ccc(NC(=O)C4(NC(=O)c5ccc(F)cc5)CC4)cc3F)c2cc1OC [Cbo-02, N-(1-((4-((6,7-diMethoxyquinolin-4-yl)oxy)-3-fluorophenyl)carbamoyl)cyclopropyl)-4-fluorobenzamide] | 30 | 29 | 12 | 74 | 75 | -6 | 1 | 38 | 58 | 1 | 
4 | COc1cc2nccc(Oc3ccc(NC(=O)C4(NC(=O)c5ccc(F)cc5)CC4)cc3F)c2cc1Oc1c(F)cc(N)cc1F [Cbo-14] | 57 | 77 | 18 | 59 | 89 | 3 | 1 | 78 | 98 | 6 | 
5 | COc1cc2nccc(Oc3ccc(NC(=O)C4(C(=O)Nc5ccc(F)cc5)CC4)cc3)c2cc1OC [Cabozantinib, reference compound] | 74 | 5 | 35 | 59 | 55 |  | 0 | 30 | 97 | 0 | 0
